Measurements reported in ChEMBL document CHEMBL5143549, “Phenothiazine, anthraquinone and related tricyclic derivatives as inhibitors of monoamine oxidase” (Bioorg Med Chem, 2022).
pIC50, pKi: −log10 of the molar value.

Assays:
[1] = biological target: T1, Amine oxidase [flavin-containing] A (Homo sapiens, UniProt P21397); test: Inhibition of recombinant human MAO-A expressed in baculovirus infected BTI insect cells using kynuramine as substrate after 20 mins by fluorescence spectrophotometric assay
T1 sequence (P21397 whole entry): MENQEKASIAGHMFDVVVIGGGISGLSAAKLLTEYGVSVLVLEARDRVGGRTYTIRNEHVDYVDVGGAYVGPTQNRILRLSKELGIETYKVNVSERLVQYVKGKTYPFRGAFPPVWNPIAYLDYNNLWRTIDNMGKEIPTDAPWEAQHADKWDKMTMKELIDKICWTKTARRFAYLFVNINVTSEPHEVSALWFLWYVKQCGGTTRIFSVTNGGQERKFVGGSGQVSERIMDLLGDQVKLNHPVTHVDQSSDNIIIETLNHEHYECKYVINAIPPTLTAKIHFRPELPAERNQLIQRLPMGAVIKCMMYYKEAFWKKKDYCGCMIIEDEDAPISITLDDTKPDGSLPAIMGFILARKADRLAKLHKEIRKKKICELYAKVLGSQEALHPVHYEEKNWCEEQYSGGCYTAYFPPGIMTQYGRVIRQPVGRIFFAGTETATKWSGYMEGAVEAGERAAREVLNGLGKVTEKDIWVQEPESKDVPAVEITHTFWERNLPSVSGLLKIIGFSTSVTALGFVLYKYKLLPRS

Homo sapiens = species on record: Homo sapiens; test: Selectivity index, ratio IC50 for recombinant human MAO-B to IC50 for recombinant human MAO-A
[2] = biological target: T2, Amine oxidase [flavin-containing] B (Homo sapiens, UniProt P27338); test: Inhibition of recombinant human MAO-B expressed in baculovirus infected BTI insect cells using kynuramine as substrate after 20 mins by fluorescence spectrophotometric assay
T2 sequence (P27338 whole entry): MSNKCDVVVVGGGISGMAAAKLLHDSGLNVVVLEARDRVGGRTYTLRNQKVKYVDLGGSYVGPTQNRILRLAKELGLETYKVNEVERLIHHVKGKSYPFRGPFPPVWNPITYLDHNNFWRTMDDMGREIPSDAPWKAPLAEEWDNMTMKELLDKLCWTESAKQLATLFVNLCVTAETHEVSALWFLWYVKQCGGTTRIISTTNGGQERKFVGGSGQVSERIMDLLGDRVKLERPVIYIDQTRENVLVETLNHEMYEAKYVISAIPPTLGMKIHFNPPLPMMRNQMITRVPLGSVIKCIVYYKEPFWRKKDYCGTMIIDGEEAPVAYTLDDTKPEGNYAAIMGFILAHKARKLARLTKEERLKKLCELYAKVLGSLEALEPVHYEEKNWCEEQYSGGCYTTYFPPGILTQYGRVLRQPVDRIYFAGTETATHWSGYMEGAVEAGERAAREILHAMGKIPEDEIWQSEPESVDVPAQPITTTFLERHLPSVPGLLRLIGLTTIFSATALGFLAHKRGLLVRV

[3] = biological target: T2, Amine oxidase [flavin-containing] B; test: Inhibition of recombinant human MAO-B expressed in baculovirus infected BTI insect cells using kynuramine as substrate after 20 mins by Lineweaver-Burk plot analysis
[4] = biological target: T1, Amine oxidase [flavin-containing] A; test: Inhibition of recombinant human MAO-A expressed in baculovirus infected BTI insect cells using kynuramine as substrate after 20 mins by Lineweaver-Burk plot analysis

## O=C1c2ccccc2C(=O)c2ccccc21 [ANTHRAQUINONE]
[1]
  pIC50: 3.91

## O=C1c2cccc(O)c2C(=O)c2c(O)cc(CO)cc21 [ALOE-EMODIN]
Homo sapiens
  Ratio IC50: 12.4
[1]
  pIC50: 5.75
[2]
  pIC50: 4.66

## O=C1c2ccc(O)cc2C(=O)c2ccc(O)cc21 [ANTHRAFLAVICACID]
Homo sapiens
  Ratio IC50: 0.49
[1]
  pIC50: 4.94
[2]
  pIC50: 5.25

## c1ccc2c(c1)Cc1ccccc1O2 [XANTHENE]
Homo sapiens
  Ratio IC50: 0.32
[1]
  pIC50: 4.61
[2]
  pIC50: 5.13

## O=C1c2ccccc2C(=O)c2cnccc21
Homo sapiens
  Ratio IC50: 0.21
[1]
  pIC50: 4.69
[2]
  pIC50: 5.37

## Clc1c2ccccc2nc2ccccc12
Homo sapiens
  Ratio IC50: 7.6
[1]
  pIC50: 4.92
[2]
  pIC50: 4.04

## O=C1C(=O)c2ccccc2-c2ccccc21 [9,10-PHENANTHRENEQUINONE]
[1]
  pIC50: 5.72

## Nc1c2ccccc2nc2ccccc12 [AMINACRINE]
Homo sapiens
  Ratio IC50: 4.31
[1]
  pIC50: 4.59
[2]
  pIC50: 3.95

## Nc1c(C(=O)O)c2nc3c(C(=O)O)cccc3oc-2cc1=O [CINNABARINIC ACID]
Homo sapiens
  Ratio IC50: 1.43
[1]
  pIC50: 4.34
[2]
  pIC50: 4.19

## O=C1c2ccccc2C(=O)c2c1ccc1c(=O)c3ccccc3[nH]c21
[1]
  pIC50: 4.07

## Nc1ccc2c(c1N)C(=O)c1ccccc1C2=O
Homo sapiens
  Ratio IC50: 1.06
[1]
  pIC50: 5.64
[2]
  pIC50: 5.62

## OC1c2ccccc2Oc2ccccc21
Homo sapiens
  Ratio IC50: 3.24
[1]
  pIC50: 4.55
[2]
  pIC50: 4.04

## COc1ccc2c(c1)Sc1ccc(Cl)cc1N2
[1]
  pIC50: 6.24
[2]
  pIC50: 5.87
[3]
  pKi: 7.35

## Cc1ccc2nc3c(ccc4ccccc43)c(C)c2c1
[1]
  pIC50: 4.02

## Nc1ccc(N)c2c1C(=O)c1ccccc1C2=O
[1]
  pIC50: 5.97

## CN1c2ccccc2Sc2ccccc21
[1]
  pIC50: 4.60

## O=C1c2ccc(O)c(O)c2C(=O)c2c(O)ccc(O)c21 [QUINALIZARIN]
[1]
  pIC50: 4.77

## O=c1c2ccccc2oc2ccccc12 [XANTHONE]
[1]
  pIC50: 6.21

## O=C1c2ccccc2C(=O)c2c(O)ccc(O)c21 [QUINIZARIN]
Homo sapiens
  Ratio IC50: 1690
[1]
  pIC50: 7.19
[2]
  pIC50: 3.96
[4]
  pKi: 7.41

## O=C1c2ccccc2C(=O)c2c(O)c(O)cc(O)c21 [PURPURIN]
Homo sapiens
  Ratio IC50: 5.03
[1]
  pIC50: 5.10
[2]
  pIC50: 4.40

## O=C1c2cccc(O)c2C(=O)c2c(O)cccc21 [DANTHRON]
Homo sapiens
  Ratio IC50: 5.49
[1]
  pIC50: 4.97
[2]
  pIC50: 4.23

## O=C1c2ccccc2Cc2ccccc21 [ANTHRONE]
[1]
  pIC50: 5.72

## CC1(C)CC(=O)C2=C(C1)C(=O)C1=C(C2)C(=O)CC(C)(C)C1
[1]
  pIC50: 4.29

## Cc1cc(O)c2c(c1)C(=O)c1cc(O)cc(O)c1C2=O [EMODIN]
Homo sapiens
  Ratio IC50: 0.75
[1]
  pIC50: 5.36
[2]
  pIC50: 5.49

## Clc1ccc2c(c1)Nc1ccccc1S2
[1]
  pIC50: 5.91

## O=C1c2cccc(O)c2C(=O)c2cccc(O)c21 [ANTHRARUFIN]
[1]
  pIC50: 4.51
